Assay results as given in patent US20060281673A1, “Novel peptide inhibitor of hiv fusion that disrupts the internal trimeric coiled-coil of gp41” (priority 2003, published 2006).
Where “and” joins values, the source holds several entries; their conditions need not be identical. Equal entries are not always repeated. Entries after “also recorded” stand apart in the source; their conditions may differ.

How the values were obtained:
[1] = molecular target: T1, C34 peptide derived from the C-terminal region of gp41 (residues 628-661) (Human immunodeficiency virus type 1 group M subtype B, UniProt P04578); test: Interaction with C34 by analytical ultracentrifugation or CD; format: binding, HIV-1
T1 construct: the C34 peptide comprises residues 628-661 of the C-region of HIV-1 gp41; purchased Commonwealth Biotechnologies (Richmond, Va.); host or cells: solid-phase synthesis
T1 sequence (P04578 628-661): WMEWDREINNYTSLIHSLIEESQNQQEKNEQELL
Method: (§1) Circular Dichroism—CD spectra of peptides (at a concentration corresponding to 0.7-0.8 A280) were recorded at 25° C. on a JASCO J-720 spectropolarimeter using a 0.05-cm path length cell.
Sedimentation Equilibrium—Sedimentation equilibrium experiments were conducted at 20.0° C. and three different rotor speeds (16,000, 20,000, and 24,000) on a Beckman Optima XL-A analytical ultracentrifuge. Peptide samples were prepared in 50 mM sodium formate buffer (pH=3) and loaded into the ultracentrifuge cells at nominal loading concentrations of ˜0.2 and 0.7-0.8 A280. Data were analyzed in terms of a single ideal solute to obtain the buoyant molecular mass, M(1−νρ), using the Optima XL-A data analysis software (Beckman). […] J. Biochem. 157:169-180)).

[2] = Circular dichroism, secondary structure; format: physicochemical; settings: CD at 25° C., program CDNN
Method: as §1

[3] = Sedimentation equilibrium (analytical ultracentrifugation), oligomeric state; format: physicochemical; settings: 50 mM sodium formate pH 3, 20.0° C.
From the text: […]. J. Biochem. 157:169-180)).

[4] = molecular target: pre-hairpin intermediate of gp41 (Human immunodeficiency virus type 1 group M subtype B, UniProt P04578); parameters: species or system HIV-1
pre-hairpin intermediate of gp41, sequence (P04578 512-856): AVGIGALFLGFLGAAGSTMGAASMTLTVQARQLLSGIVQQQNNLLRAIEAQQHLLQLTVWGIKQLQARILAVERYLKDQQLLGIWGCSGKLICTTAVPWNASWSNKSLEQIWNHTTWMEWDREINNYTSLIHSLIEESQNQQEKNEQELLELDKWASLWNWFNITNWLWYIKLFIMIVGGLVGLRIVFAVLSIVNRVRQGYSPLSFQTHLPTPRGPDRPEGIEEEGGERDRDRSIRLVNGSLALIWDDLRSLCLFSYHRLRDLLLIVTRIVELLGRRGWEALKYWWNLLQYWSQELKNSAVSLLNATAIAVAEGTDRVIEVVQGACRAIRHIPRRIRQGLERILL

[5] = tested on: HIV Env-mediated cell fusion; settings: read-out: fails to inhibit fusion even at concentrations as high as

| Substance | interaction with C34 [1] | helical content [2] | oligomeric state in solution [3] | optimized value of β (heterotrimerization with gp41 relative to Kref^trimer) [4] | IC50 [5] |
| --- | --- | --- | --- | --- | --- |
| Ac-SGIDQEQNNLTRLIEAQIHELQLTQWKIKQLLARIL-NH2 [N36^Mut(e,g)] | does not interact with C34; also recorded: No evidence of interaction | ~80% | monodisperse, helical trimer | 2.97 and 5.76 |  |
| SGIVQQLNNQLRAEEANQHLEQLSVWGSKQNQARRL; peptide derived from N36 with nine substitutions at positions a and d of the helical wheel (SGIVQQLNNQLRAEEANQHLEQLSVWGSKQNQARRL) [N36^Mut(a,d)] | does not interact with the C34 peptide; also recorded: No evidence of interaction | ~20% | monomeric; also recorded: monomer |  | > 100 µM |
